Measurements published in ChEMBL document CHEMBL5154689, “Discovery of novel β-carboline derivatives as selective AChE inhibitors with GSK-3β inhibitory property for the treatment of Alzheimer's disease” (Eur J Med Chem, 2022).

Tests used:
[1] = molecular target: Cholinesterase (Equus caballus) (UniProt P81908); assay: Inhibition of equine serum BChE at 50 uM using butyrylthiocholine iodide as substrate preincubated with enzyme for 20 mins followed by substrate addition and measured after 20 mins by Ellman's method; type: cell-free; details: time 40.0 min
Chain of Cholinesterase (Equus caballus) (P81908 whole entry): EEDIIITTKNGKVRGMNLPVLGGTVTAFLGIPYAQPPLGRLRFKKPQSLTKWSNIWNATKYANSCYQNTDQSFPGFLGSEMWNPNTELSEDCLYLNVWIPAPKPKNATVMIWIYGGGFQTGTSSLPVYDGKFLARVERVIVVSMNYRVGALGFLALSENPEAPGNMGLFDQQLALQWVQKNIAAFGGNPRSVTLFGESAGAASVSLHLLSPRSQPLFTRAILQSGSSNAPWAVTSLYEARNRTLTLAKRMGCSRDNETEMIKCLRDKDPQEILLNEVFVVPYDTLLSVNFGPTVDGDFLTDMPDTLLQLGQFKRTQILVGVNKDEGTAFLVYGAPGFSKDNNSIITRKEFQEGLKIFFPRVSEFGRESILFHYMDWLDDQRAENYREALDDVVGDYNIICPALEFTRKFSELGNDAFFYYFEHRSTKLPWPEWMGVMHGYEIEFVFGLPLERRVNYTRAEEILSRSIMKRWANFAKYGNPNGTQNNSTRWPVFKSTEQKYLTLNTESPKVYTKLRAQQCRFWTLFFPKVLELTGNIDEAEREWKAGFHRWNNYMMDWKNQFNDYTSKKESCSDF

Acetylcholinesterase = Acetylcholinesterase (Electrophorus electricus, UniProt O42275); assay: Inhibition of electric eel AChE using acetylthiocholine iodide as substrate preincubated with enzyme for 20 mins followed by substrate addition and measured after 20 mins by Ellman's method
Chain of Acetylcholinesterase (O42275 whole entry): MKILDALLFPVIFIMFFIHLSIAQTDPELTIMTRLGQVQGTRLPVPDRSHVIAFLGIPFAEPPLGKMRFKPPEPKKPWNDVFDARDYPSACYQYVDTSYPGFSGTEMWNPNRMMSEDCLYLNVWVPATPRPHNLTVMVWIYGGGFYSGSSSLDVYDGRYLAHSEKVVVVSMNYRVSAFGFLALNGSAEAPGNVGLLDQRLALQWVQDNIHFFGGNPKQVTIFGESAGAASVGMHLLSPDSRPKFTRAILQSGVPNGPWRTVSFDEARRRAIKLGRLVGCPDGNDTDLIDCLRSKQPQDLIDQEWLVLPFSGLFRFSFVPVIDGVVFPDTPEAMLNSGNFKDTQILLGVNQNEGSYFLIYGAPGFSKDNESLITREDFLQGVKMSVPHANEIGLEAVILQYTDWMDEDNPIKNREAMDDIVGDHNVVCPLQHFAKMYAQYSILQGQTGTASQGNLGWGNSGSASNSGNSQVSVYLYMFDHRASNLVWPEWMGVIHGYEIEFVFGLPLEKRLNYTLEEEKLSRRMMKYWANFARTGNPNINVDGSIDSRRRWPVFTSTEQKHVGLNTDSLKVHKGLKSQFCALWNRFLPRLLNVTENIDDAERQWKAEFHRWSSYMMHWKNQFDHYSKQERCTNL

Cholinesterase = Cholinesterase (Equus caballus, UniProt P81908); assay: Inhibition of equine serum BChE using butyrylthiocholine iodide as substrate preincubated with enzyme for 20 mins followed by substrate addition and measured after 20 mins by Ellman's method; type: cell-free
Chain of Cholinesterase (P81908 whole entry): as the sequence (P81908 whole entry) above

[2] = Selectivity index, ratio of IC50 for equine serum BChE to IC50 for electric eel AChE
[3] = molecular target: Glycogen synthase kinase-3 beta (Homo sapiens, UniProt P49841); assay: Inhibition of GSK3-beta (unknown origin) at 10 uM incubated for 60 mins by ATP-Glo luminescent assay
Chain of Glycogen synthase kinase-3 beta (P49841 whole entry, looked up): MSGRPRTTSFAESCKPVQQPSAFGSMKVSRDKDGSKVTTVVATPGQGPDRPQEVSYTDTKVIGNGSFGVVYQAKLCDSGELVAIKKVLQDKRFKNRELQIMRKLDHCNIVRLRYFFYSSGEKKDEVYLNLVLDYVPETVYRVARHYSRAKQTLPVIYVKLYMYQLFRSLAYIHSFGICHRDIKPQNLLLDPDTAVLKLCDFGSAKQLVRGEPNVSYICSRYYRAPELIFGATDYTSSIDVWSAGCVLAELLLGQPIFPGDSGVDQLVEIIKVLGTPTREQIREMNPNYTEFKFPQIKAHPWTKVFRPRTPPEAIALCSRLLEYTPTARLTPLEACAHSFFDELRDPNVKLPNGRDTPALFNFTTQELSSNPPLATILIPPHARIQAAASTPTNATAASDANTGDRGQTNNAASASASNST

SH-SY5Y = assay: Cytotoxicity against human SH-SY5Y cells assessed as reduction in cell viability at 10 uM incubated for 48 hrs by MTT assay; type: toxicity, cell-based
L02 = assay: Cytotoxicity against human HL7702 cells assessed as reduction in cell viability at 10 uM incubated for 48 hrs by MTT assay; type: toxicity, cell-based; details: l02, 48 h

Structure (SMILES)	inhibition [1]	IC50 (Acetylcholinesterase)	IC50 (Cholinesterase)	Ratio IC50 [2]	inhibition [3]	Activity (SH-SY5Y)	Activity (L02)
O=C(NCC1CCN(Cc2ccccc2)CC1)c1ccc2c(c1)[nH]c1c(NC(=O)C3CC3)nccc12	37.2%	1.73 µM	> 50 µM	48.1	20.8%		
O=C(NCCC1CCN(Cc2cc(F)cc(F)c2)CC1)c1ccc2c(c1)[nH]c1c(NC(=O)C3CC3)nccc12	< 10%	5.8 µM	> 50 µM	> 8.62	2.71%		
O=C(NC1CCN(Cc2ccc(F)cc2)CC1)c1ccc2c(c1)[nH]c1c(NC(=O)C3CC3)nccc12	36.9%	2.14 µM	> 50 µM	> 23.4	74.6%		
O=C(NCC1CCN(Cc2ccccc2F)CC1)c1ccc2c(c1)[nH]c1c(NC(=O)C3CC3)nccc12	55.6%	0.84 µM	34.2 µM	40.7	42.1%		
O=C(NC1CCN(Cc2cccc([N+](=O)[O-])c2)CC1)c1ccc2c(c1)[nH]c1c(NC(=O)C3CC3)nccc12	20.1%	2.77 µM	> 50 µM	> 18.1	78%		
O=C(NCCC1CCN(Cc2ccc(C(F)(F)F)cc2)CC1)c1ccc2c(c1)[nH]c1c(NC(=O)C3CC3)nccc12	< 10%	31.2 µM	> 50 µM	> 1.6	73.8%	Toxic	Toxic
O=C(NC1CCN(Cc2ccc(Cl)cc2)CC1)c1ccc2c(c1)[nH]c1c(NC(=O)C3CC3)nccc12	< 10%	18.9 µM	> 50 µM	> 2.64	57.9%		
O=C(NCC1CCN(Cc2ccc(F)cc2)CC1)c1ccc2c(c1)[nH]c1c(NC(=O)C3CC3)nccc12	39.7%	3.08 µM	> 50 µM	> 16.2	40.9%		
Cc1ccc(CN2CCC(NC(=O)c3ccc4c(c3)[nH]c3c(NC(=O)C5CC5)nccc34)CC2)cc1	23%	8.56 µM	> 50 µM	> 5.84	10.5%		
O=C(NCC1CCN(Cc2ccc(Cl)cc2)CC1)c1ccc2c(c1)[nH]c1c(NC(=O)C3CC3)nccc12	< 10%	19.6 µM	> 50 µM	> 2.55	11.7%		
Cc1ccc(CN2CCC(CNC(=O)c3ccc4c(c3)[nH]c3c(NC(=O)C5CC5)nccc34)CC2)cc1	15.3%	3.02 µM	> 50 µM	> 16.6	46.4%		
O=C(NCCC1CCN(Cc2cccc([N+](=O)[O-])c2)CC1)c1ccc2c(c1)[nH]c1c(NC(=O)C3CC3)nccc12	21.5%	1.57 µM	> 50 µM	> 31.9	66.2%		
O=C(NC1CCN(Cc2ccc(C(F)(F)F)cc2)CC1)c1ccc2c(c1)[nH]c1c(NC(=O)C3CC3)nccc12	< 10%	13.9 µM	> 50 µM	> 3.6	71.9%		
O=C(NCCC1CCN(Cc2ccc(F)cc2)CC1)c1ccc2c(c1)[nH]c1c(NC(=O)C3CC3)nccc12	68.7%	1.21 µM	20.3 µM	16.8	14.9%		
O=C(NCC1CCN(Cc2cccc(F)c2)CC1)c1ccc2c(c1)[nH]c1c(NC(=O)C3CC3)nccc12	32.6%	2.24 µM	> 50 µM	> 22.3	11.1%		
O=C(NCCC1CCN(Cc2c(Cl)cccc2Cl)CC1)c1ccc2c(c1)[nH]c1c(NC(=O)C3CC3)nccc12	< 10%	0.89 µM	> 50 µM	> 56.2	52.1%		
